Measured values: US20240218022A1, “ANTI-VISTA MACROCYCLIC PEPTIDES AND COMPOSITIONS” (BRISTOL-MYERS SQUIBB COMPANY, priority 2022, published 2024)
pIC50: −log10 of the molar value. Starred links: 1 amine or outer side, 2 acyl side, 3 side chain; linkers in the order of their positions; H or OH if unused. Positions of bridges follow the written chain, without caps; N, C: chain ends. Non-standard residues stand in square brackets, D forms with d. Residues, ends and D or L forms follow the SMILES beside them. Phe(4-CONH2) = NC(=O)c1ccc(C[C@H](N)C(=O)O)cc1; βAsp = O=C(O)[C@H](CC(=O)[*:2])N[*:1]; Ahp(2) = CCCCC[C@H](N)C(=O)O; NMeNle = CCCC[C@H](NC)C(=O)O; Tle = CC(C)(C)[C@H](N)C(=O)O; NHexGly = CCCCCCNCC(=O)O; Orn = NCCC[C@H](N)C(=O)O; Aun = NCCCCCCCCCCC(=O)O; Dab = NCC[C@H](N)C(=O)O; AEEA = NCCOCCOCC(=O)O

Biological target: T1, mouse VISTA (mVISTA) (Mus musculus, UniProt Q9D659)
T1 construct: expressed in transfected cells; host or cells: Human embryonic kidney 293T cells
T1 sequence (Q9D659 33-308): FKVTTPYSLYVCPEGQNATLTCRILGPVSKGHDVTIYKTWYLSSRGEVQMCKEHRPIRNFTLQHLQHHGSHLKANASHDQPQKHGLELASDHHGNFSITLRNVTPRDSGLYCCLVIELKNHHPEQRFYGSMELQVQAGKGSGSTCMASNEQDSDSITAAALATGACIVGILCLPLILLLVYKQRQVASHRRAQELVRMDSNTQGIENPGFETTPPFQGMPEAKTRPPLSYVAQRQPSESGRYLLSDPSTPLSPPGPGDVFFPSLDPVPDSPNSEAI
Experiment: Cell-Based Binding High-Content Assay For mVISTA (HC CBA mVISTA)
Settings: cell-based binding high-content assay, mVISTA; read-out: HC CBA miPrISTA IC50
How it was run: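 mVISTA-293T, 4,000 cells/well; cpd ± washout step; biotin-peptide 2 nM final, 30 min RT; SA-Alexa 647 30 min; formaldehyde/Hoechst fix; HCS imaging; 4PL IC50.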

SMILES	pIC50
CCCCCCN1CC(=O)N[C@@H](Cc2ccc(O)cc2)C(=O)N[C@@H](CC(C)C)C(=O)N[C@@H](CC(N)=O)C(=O)N[C@@H](CCCNC(=N)N)C(=O)N(C)[C@@H](CCCC)C(=O)N[C@@H](CCCCC)C(=O)N2CCC[C@H]2C(=O)N[C@@H](C(C)(C)C)C(=O)N[C@@H](CC(=O)O)C(=O)N[C@H](C(=O)N[C@@H](CCCN)C(=O)NCCOCCOCC(=O)N[C@@H](CC(=O)O)C(=O)NCCOCCOCC(=O)NCCCCCCCCCCC(=O)O)CSCC(=O)N[C@@H](Cc2ccccc2)C(=O)N[C@@H](Cc2ccc(O)cc2)C(=O)N[C@@H](CC(=O)O)C1=O [compound 2082] ({CH2CO}-FYD[NHexGly]YLNR[NMeNle][Ahp(2)]P[Tle]DC[Orn][AEEA]D[AEEA][Aun]-OH; thioether N-14)	7.56
CCCCCCN1CC(=O)N[C@@H](Cc2ccc(O)cc2)C(=O)N[C@@H](CC(C)C)C(=O)N[C@@H](CC(N)=O)C(=O)N[C@@H](CCCNC(=N)N)C(=O)N(C)[C@@H](CCCC)C(=O)N[C@@H](CCCCC)C(=O)N2CCC[C@H]2C(=O)N[C@@H](C(C)(C)C)C(=O)N[C@@H](CC(=O)O)C(=O)N[C@H](C(=O)N[C@@H](CCN)C(=O)NCCOCCOCC(=O)N[C@@H](CC(=O)O)C(=O)NCCOCCOCC(=O)NCCCCCCCCCCC(=O)O)CSCC(=O)N[C@@H](Cc2ccccc2)C(=O)N[C@@H](Cc2ccc(O)cc2)C(=O)N[C@@H](CC(=O)O)C1=O [compound 2085] ({CH2CO}-FYD[NHexGly]YLNR[NMeNle][Ahp(2)]P[Tle]DC[Dab][AEEA]D[AEEA][Aun]-OH; thioether N-14)	7.38
CCCCCCN1CC(=O)N[C@@H](Cc2ccc(O)cc2)C(=O)N[C@@H](CC(C)C)C(=O)N[C@@H](CC(N)=O)C(=O)N[C@@H](CCCNC(=N)N)C(=O)N(C)[C@@H](CCCC)C(=O)N[C@@H](CCCCC)C(=O)N2CCC[C@H]2C(=O)N[C@@H](C(C)(C)C)C(=O)N[C@@H](CC(=O)O)C(=O)N[C@H](C(=O)N[C@@H](CC(=O)NCCOCCOCC(=O)N[C@@H](CC(=O)O)C(=O)NCCOCCOCC(=O)NCCCCCCCCCCC(=O)O)C(=O)O)CSCC(=O)N[C@@H](Cc2ccc(C(N)=O)cc2)C(=O)N[C@@H](Cc2c[nH]c3ccccc23)C(=O)N[C@@H](CC(=O)O)C1=O [compound 2091] ({CH2CO}-[Phe(4-CONH2)]WD[NHexGly]YLNR[NMeNle][Ahp(2)]P[Tle]DC[βAsp][AEEA]D[AEEA][Aun]-OH; thioether N-14)	7.84
CCCCCCN1CC(=O)N[C@@H](Cc2ccc(O)cc2)C(=O)N[C@@H](CC(C)C)C(=O)N[C@@H](CC(N)=O)C(=O)N[C@@H](CCCN)C(=O)N(C)[C@@H](CCCC)C(=O)N[C@@H](CCCCC)C(=O)N2CCC[C@H]2C(=O)N[C@@H](C(C)(C)C)C(=O)N[C@@H](CC(=O)O)C(=O)N[C@H](C(=O)N[C@@H](CC(=O)NCCOCCOCC(=O)N[C@@H](CC(=O)O)C(=O)NCCOCCOCC(=O)NCCCCCCCCCCC(=O)O)C(=O)O)CSCC(=O)N[C@@H](Cc2ccc(C(N)=O)cc2)C(=O)N[C@@H](Cc2ccc(O)cc2)C(=O)N[C@@H](CC(=O)O)C1=O [compound 2092] ({CH2CO}-[Phe(4-CONH2)]YD[NHexGly]YLN[Orn][NMeNle][Ahp(2)]P[Tle]DC[βAsp][AEEA]D[AEEA][Aun]-OH; thioether N-14)	7.80
CCCCCCN1CC(=O)N[C@@H](Cc2ccc(O)cc2)C(=O)N[C@@H](C)C(=O)N[C@@H](CC(N)=O)C(=O)N[C@@H](CCCN)C(=O)N(C)[C@@H](CCCC)C(=O)N[C@@H](CCCCC)C(=O)N2CCC[C@H]2C(=O)N[C@@H](C(C)(C)C)C(=O)N[C@@H](CO)C(=O)N[C@H](C(=O)N[C@@H](CC(=O)NCCOCCOCC(=O)N[C@@H](CC(=O)O)C(=O)NCCOCCOCC(=O)NCCCCCCCCCCC(=O)O)C(=O)O)CSCC(=O)N[C@@H](Cc2ccccc2)C(=O)N[C@@H](Cc2c[nH]c3ccccc23)C(=O)N[C@@H](CC(=O)O)C1=O [compound 2093] ({CH2CO}-FWD[NHexGly]YAN[Orn][NMeNle][Ahp(2)]P[Tle]SC[βAsp][AEEA]D[AEEA][Aun]-OH; thioether N-14)	7.66
CCCCCCN1CC(=O)N[C@@H](Cc2ccc(O)cc2)C(=O)N[C@@H](C)C(=O)N[C@@H](CC(N)=O)C(=O)N[C@@H](CCCNC(=N)N)C(=O)N(C)[C@@H](CCCC)C(=O)N[C@@H](CCCCC)C(=O)N2CCC[C@H]2C(=O)N[C@@H](C(C)(C)C)C(=O)N[C@@H](CC(=O)O)C(=O)N[C@H](C(=O)N[C@@H](CC(=O)NCCOCCOCC(=O)N[C@@H](CC(=O)O)C(=O)NCCOCCOCC(=O)NCCCCCCCCCCC(=O)O)C(=O)O)CSCC(=O)N[C@@H](Cc2ccccc2)C(=O)N[C@@H](Cc2c[nH]c3ccccc23)C(=O)N[C@@H](CC(=O)O)C1=O [compound 2094] ({CH2CO}-FWD[NHexGly]YANR[NMeNle][Ahp(2)]P[Tle]DC[βAsp][AEEA]D[AEEA][Aun]-OH; thioether N-14)	7.46

Further molecules by rising pIC50, results first:

pIC50	SMILES
7.30	CCCCCCN1CC(=O)N[C@@H](Cc2ccc(O)cc2)C(=O)N[C@@H](C)C(=O)N[C@@H](CC(N)=O)C(=O)N[C@@H](CCCN)C(=O)N(C)[C@@H](CCCC)C(=O)N[C@@H](CCCCC)C(=O)N2CCC[C@H]2C(=O)N[C@@H](C(C)(C)C)C(=O)N[C@@H](CC(=O)O)C(=O)N[C@H](C(=O)N[C@@H](CC(=O)NCCOCCOCC(=O)N[C@@H](CC(=O)O)C(=O)NCCOCCOCC(=O)NCCCCCCCCCCC(=O)O)C(=O)O)CSCC(=O)N[C@@H](Cc2ccccc2)C(=O)N[C@@H](Cc2ccc(O)cc2)C(=O)N[C@@H](CC(=O)O)C1=O [compound 2095] ({CH2CO}-FYD[NHexGly]YAN[Orn][NMeNle][Ahp(2)]P[Tle]DC[βAsp][AEEA]D[AEEA][Aun]-OH; thioether N-14)
7.30	CCCCCCN1CC(=O)N[C@@H](Cc2ccc(O)cc2)C(=O)N[C@@H](CC(C)C)C(=O)N[C@@H](CC(N)=O)C(=O)N[C@@H](CCCNC(=N)N)C(=O)N(C)[C@@H](CCCC)C(=O)N[C@@H](CCCCC)C(=O)N2CCC[C@H]2C(=O)N[C@@H](C(C)(C)C)C(=O)N[C@@H](CO)C(=O)N[C@H](C(=O)N[C@@H](CCN)C(=O)NCCOCCOCC(=O)N[C@@H](CC(=O)O)C(=O)NCCOCCOCC(=O)NCCCCCCCCCCC(=O)O)CSCC(=O)N[C@@H](Cc2ccccc2)C(=O)N[C@@H](Cc2ccc(O)cc2)C(=O)N[C@@H](CC(=O)O)C1=O [compound 2086] ({CH2CO}-FYD[NHexGly]YLNR[NMeNle][Ahp(2)]P[Tle]SC[Dab][AEEA]D[AEEA][Aun]-OH; thioether N-14)
7.46	CCCCCCN1CC(=O)N[C@@H](Cc2ccc(O)cc2)C(=O)N[C@@H](CC(C)C)C(=O)N[C@@H](CC(N)=O)C(=O)N[C@@H](CCCNC(=N)N)C(=O)N(C)[C@@H](CCCC)C(=O)N[C@@H](CCCCC)C(=O)N2CCC[C@H]2C(=O)N[C@@H](C(C)(C)C)C(=O)N[C@@H](CO)C(=O)N[C@H](C(=O)N[C@@H](CC(=O)NCCOCCOCC(=O)N[C@@H](CC(=O)O)C(=O)NCCOCCOCC(=O)NCCCCCCCCCCC(=O)O)C(=O)O)CSCC(=O)N[C@@H](Cc2ccc(C(N)=O)cc2)C(=O)N[C@@H](Cc2c[nH]c3ccccc23)C(=O)N[C@@H](CC(=O)O)C1=O [compound 2090] ({CH2CO}-[Phe(4-CONH2)]WD[NHexGly]YLNR[NMeNle][Ahp(2)]P[Tle]SC[βAsp][AEEA]D[AEEA][Aun]-OH; thioether N-14)
7.54	CCCCCCN1CC(=O)N[C@@H](Cc2ccc(O)cc2)C(=O)N[C@@H](CC(C)C)C(=O)N[C@@H](CC(N)=O)C(=O)N[C@@H](CCCNC(=N)N)C(=O)N(C)[C@@H](CCCC)C(=O)N[C@@H](CCCCC)C(=O)N2CCC[C@H]2C(=O)N[C@@H](C(C)(C)C)C(=O)N[C@@H](CO)C(=O)N[C@H](C(=O)N[C@@H](CC(=O)NCCOCCOCC(=O)N[C@@H](CC(=O)O)C(=O)NCCOCCOCC(=O)NCCCCCCCCCCC(=O)O)C(=O)O)CSCC(=O)N[C@@H](Cc2ccc(C(N)=O)cc2)C(=O)N[C@@H](Cc2ccc(O)cc2)C(=O)N[C@@H](CC(=O)O)C1=O [compound 2087] ({CH2CO}-[Phe(4-CONH2)]YD[NHexGly]YLNR[NMeNle][Ahp(2)]P[Tle]SC[βAsp][AEEA]D[AEEA][Aun]-OH; thioether N-14)
7.55	CCCCCCN1CC(=O)N[C@@H](Cc2ccc(O)cc2)C(=O)N[C@@H](CC(C)C)C(=O)N[C@@H](CC(N)=O)C(=O)N[C@@H](CCCNC(=N)N)C(=O)N(C)[C@@H](CCCC)C(=O)N[C@@H](CCCCC)C(=O)N2CCC[C@H]2C(=O)N[C@@H](C(C)(C)C)C(=O)N[C@@H](CO)C(=O)N[C@H](C(=O)N[C@@H](CCCCN)C(=O)NCCOCCOCC(=O)N[C@@H](CC(=O)O)C(=O)NCCOCCOCC(=O)NCCCCCCCCCCC(=O)O)CSCC(=O)N[C@@H](Cc2ccccc2)C(=O)N[C@@H](Cc2ccc(O)cc2)C(=O)N[C@@H](CC(=O)O)C1=O [compound 2080] ({CH2CO}-FYD[NHexGly]YLNR[NMeNle][Ahp(2)]P[Tle]SCK[AEEA]D[AEEA][Aun]-OH; thioether N-14)
7.77	CCCCCCN1CC(=O)N[C@@H](Cc2ccc(O)cc2)C(=O)N[C@@H](CC(C)C)C(=O)N[C@@H](CC(N)=O)C(=O)N[C@@H](CCCNC(=N)N)C(=O)N(C)[C@@H](CCCC)C(=O)N[C@@H](CCCCC)C(=O)N2CCC[C@H]2C(=O)N[C@@H](C(C)(C)C)C(=O)N[C@@H](CC(=O)O)C(=O)N[C@H](C(=O)N[C@@H](CC(=O)NCCOCCOCC(=O)N[C@@H](CC(=O)O)C(=O)NCCOCCOCC(=O)NCCCCCCCCCCC(=O)O)C(=O)O)CSCC(=O)N[C@@H](Cc2ccc(C(N)=O)cc2)C(=O)N[C@@H](Cc2ccc(O)cc2)C(=O)N[C@@H](CC(=O)O)C1=O [compound 2088] ({CH2CO}-[Phe(4-CONH2)]YD[NHexGly]YLNR[NMeNle][Ahp(2)]P[Tle]DC[βAsp][AEEA]D[AEEA][Aun]-OH; thioether N-14)
